Laboratory results taken from US8921307B2, “Synthetic linear apelin mimetics for the treatment of heart failure” (priority 2012, dated 2014).
Where a SMILES comes first, the peptide text is derived from it. [ ]: non-standard residue; d: D form. Cha = N[C@@H](CC1CCCCC1)C(=O)O; pGlu = O=C1CC[C@@H](C(=O)O)N1; dNle = CCCC[C@@H](N)C(=O)O; dNva = CCC[C@@H](N)C(=O)O; Aib = CC(C)(N)C(=O)O

Assays:
[1] = molecular target: T1, hAPJ (Homo sapiens, UniProt P35414); experiment: hAPJ Calcium Flux Assay; assay type: cell-based; conditions: Chem-5 APJ stable cells, FLIPR calcium flux stimulation; read-out: hAPJ Ca^2+ Flux EC50
T1 sequence (P35414 1-380): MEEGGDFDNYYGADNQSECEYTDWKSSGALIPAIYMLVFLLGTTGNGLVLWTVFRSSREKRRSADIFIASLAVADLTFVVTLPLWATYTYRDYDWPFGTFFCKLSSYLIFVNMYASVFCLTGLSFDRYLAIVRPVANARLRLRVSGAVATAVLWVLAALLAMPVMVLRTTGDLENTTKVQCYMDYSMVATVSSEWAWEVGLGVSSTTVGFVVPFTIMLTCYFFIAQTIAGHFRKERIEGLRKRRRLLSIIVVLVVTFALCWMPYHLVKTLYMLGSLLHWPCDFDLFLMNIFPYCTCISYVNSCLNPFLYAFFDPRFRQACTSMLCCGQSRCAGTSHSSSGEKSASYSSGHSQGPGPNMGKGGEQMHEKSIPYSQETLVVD
In short: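 Chem-5 cells stably expressing APJ, loaded 1 h with Calcium 4 dye plus 2.5 mM probenecid at 37 °C. Peptides added at final […] in HBSS/HEPES/0.1% BSA, in triplicate.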

[2] = Surrogate Activity-Based Plasma Stability Assay; assay type: in vitro ADME; conditions: rat
Method: Stability half-life was then calculated by the formula, t½=0.693÷k Surrogate Activity-Based Plasma Stability Assay: […]
2) Calculate slope of value above and […]

[3] = Plasma Stability Assay (LC-MS); assay type: in vitro ADME; conditions: male, Sprague-Dawley, rat
Method: Plasma Stability Assay: Materials: Working solution: 1 mg/mL test article is prepared in Milli-Q water Extraction solution: Methanol:Acetonitrile:Water (1:1:1) with 0.1% Formic Acid and 400 ng/mL Glyburide. Plasma: Male Sprague-Dawley rat plasma (with sodium heparin), purchased from Bioreclamation LLC (Liverpool, N.Y.). Test article was prepared in one of the following biological matrices: heparinized rat plasma, heparinized rat whole blood or lung homogenate. […] Lung homogenate samples were prepared by diluting lung homogenate to 1 mg/ml protein concentration with phosphate buffered saline (PBS), followed by addition of 5 uL Working solution to 995 uL diluted lung homogenate. The samples were incubated at 37° C. with gentle shaking (65˜75 rpm) in a water bath incubator. […] Afterwards, a pipetting device (Tecan Temo) was used to tranfer the supernatants to another plate and add 50 uL of water to all samples. The plate was vortexed prior to LC-MS analysis. LC-MS Analysis of stability samples HPLC: Agilent 1290 HPLC with autosampler Column: MAC-MOD ACE C18, 3 μm, 30 mm×2.1 mm i.d. Mobile phase A: 0.1% Formic acid in acetonitrile Mobile phase B: 0.1% Formic acid in water Gradient Program: [table]

[4] = Surrogate Activity based Plasma stability t½
[5] = Surrogate activity-based Plasma stability t½

| EC50 [1] [nM] | half-life [2, 4] [h] | half-life [2, 5] [h] | half-life at 5000 ng/mL [3] [h] | Compound |
| --- | --- | --- | --- | --- |
| 5 | 12.2 | 12.2 | 6.9 | CCCC[C@@H](NC(=O)[C@@H]1CCCN1C(=O)CNC(=O)[C@H](CCCCN)NC(=O)C(C)(C)NC(=O)[C@H](CO)NC(=O)[C@@H](CC(C)C)NC(=O)[C@H](CCCNC(=N)N)NC(=O)[C@@H]1CCCN1C(=O)[C@H](CCCNC(=N)N)NC(=O)[C@@H]1CCC(=O)N1)C(=O)N[C@H](C)C(=O)N[C@H](Cc1ccccc1)C(=O)O [Example 4, pE-R-P-R-(D-Leu)-S-Aib-K-G-P-nle-a-f-OH] ([pGlu]RPR[dL]S[Aib]KGP[dNle][dA][dF]-OH) |
| 3.2 | 3.08 | 3.08 | 6.75 | CCCC[C@@H](NC(=O)[C@@H]1CCCN1C(=O)CNC(=O)[C@H](CCCCN)NC(=O)[C@H](Cc1c[nH]cn1)NC(=O)[C@@H](C)NC(=O)[C@H](CC(C)C)NC(=O)[C@H](CCCNC(=N)N)NC(=O)[C@@H]1CCCN1C(=O)[C@H](CCCNC(=N)N)NC(=O)[C@@H]1CCC(=O)N1)C(=O)N[C@H](CC(C)C)C(=O)N[C@H](Cc1ccccc1)C(=O)O [Example 14, pE-R-P-R-L-a-H-K-G-P-nle-(D-Leu)-f-OH] ([pGlu]RPRL[dA]HKGP[dNle][dL][dF]-OH) |
| – | 9.42 | 9.42 | 2.6 | CCCC[C@@H](NC(=O)[C@@H]1CCCN1C(=O)CNC(=O)[C@H](CCCCN)NC(=O)[C@H](Cc1c[nH]cn1)NC(=O)[C@@H](C)NC(=O)[C@H](CC(C)C)NC(=O)[C@H](CCCNC(=N)N)NC(=O)[C@@H]1CCCN1C(=O)[C@H](CCCNC(=N)N)NC(=O)[C@@H]1CCC(=O)N1)C(=O)N[C@H](C)C(=O)N[C@H](Cc1ccccc1)C(=O)O [Example 29, pE-R-P-R-L-a-H-K-G-P-nle-a-f-OH] |
| 0.9 | – | 15 | – | CCCC[C@@H](NC(=O)[C@@H]1CCCN1C(=O)CNC(=O)[C@H](CCCCN)NC(=O)[C@H](Cc1c[nH]cn1)NC(=O)[C@@H](C)NC(=O)[C@H](CC(C)C)NC(=O)[C@H](CCCNC(=N)N)NC(=O)[C@@H]1CCCN1C(=O)[C@H](CCCNC(=N)N)NC(=O)[C@@H]1CCC(=O)N1)C(=O)N[C@H](CCC)C(=O)N[C@H](Cc1ccccc1)C(=O)O [Example 54, pE-R-P-R-L-a-H-K-G-P-nle-nva-f-OH] ([pGlu]RPRL[dA]HKGP[dNle][dNva][dF]-OH) |
| 72.8 | – | 1.68 | – | CCCC[C@@H](NC(=O)[C@@H]1CCCN1C(=O)CNC(=O)[C@H](CCCCN)NC(=O)[C@@H](Cc1ccccc1)NC(=O)[C@H](CO)NC(=O)[C@H](CC(C)C)NC(=O)[C@H](CCCNC(=N)N)NC(=O)[C@@H]1CCCN1C(=O)[C@H](CCCNC(=N)N)NC(=O)[C@@H]1CCC(=O)N1)C(=O)N[C@H](C)C(=O)N[C@H](Cc1ccccc1)C(=O)O [Example 55, pE-R-P-R-L-S-f-K-G-P-nle-a-f-OH] ([pGlu]RPRLS[dF]KGP[dNle][dA][dF]-OH) |
| 6.8 | – | 5.52 | – | CCCC[C@@H](NC(=O)[C@@H]1CCCN1C(=O)CNC(=O)[C@H](CCCCN)NC(=O)[C@@H](Cc1c[nH]cn1)NC(=O)[C@H](CO)NC(=O)[C@H](CC(C)C)NC(=O)[C@H](CCCNC(=N)N)NC(=O)[C@@H]1CCCN1C(=O)[C@H](CCCNC(=N)N)NC(=O)[C@@H]1CCC(=O)N1)C(=O)N[C@H](C)C(=O)N[C@H](Cc1ccccc1)C(=O)O [Example 56, pE-R-P-R-L-S-h-K-G-P-nle-a-f-OH] ([pGlu]RPRLS[dH]KGP[dNle][dA][dF]-OH) |
| 1.5 | – | > 16.7 | – | CC(C)C[C@H](NC(=O)[C@H](CCCNC(=N)N)NC(=O)[C@@H]1CCCN1C(=O)[C@H](CCCNC(=N)N)NC(=O)[C@@H]1CCC(=O)N1)C(=O)N[C@H](C)C(=O)N[C@@H](Cc1c[nH]cn1)C(=O)N[C@@H](CCCCN)C(=O)NCC(=O)N1CCC[C@H]1C(=O)N[C@H](Cc1ccccc1)C(=O)N[C@H](C)C(=O)N[C@H](Cc1ccccc1)C(=O)O [Example 57, pE-R-P-R-L-a-H-K-G-P-f-a-f-OH] ([pGlu]RPRL[dA]HKGP[dF][dA][dF]-OH) |
| 55.1 | – | 3.8 | – | CCCC[C@@H](NC(=O)[C@@H]1CCCN1C(=O)CNC(=O)[C@H](CCCCN)NC(=O)[C@@H](Cc1c[nH]cn1)NC(=O)[C@H](C)NC(=O)[C@H](CC(C)C)NC(=O)[C@H](CCCNC(=N)N)NC(=O)[C@@H]1CCCN1C(=O)[C@H](CCCNC(=N)N)NC(=O)[C@@H]1CCC(=O)N1)C(=O)N[C@H](C)C(=O)N[C@H](Cc1ccccc1)C(=O)O [Example 58, pE-R-P-R-L-A-h-K-G-P-nle-a-f-OH] |
| 7.4 | – | 14.2 | – | CCCC[C@@H](NC(=O)[C@@H]1CCCN1C(=O)CNC(=O)[C@H](CCC(N)=O)NC(=O)[C@H](Cc1c[nH]cn1)NC(=O)[C@@H](C)NC(=O)[C@H](CC(C)C)NC(=O)[C@H](CCCNC(=N)N)NC(=O)[C@@H]1CCCN1C(=O)[C@H](CCCNC(=N)N)NC(=O)[C@@H]1CCC(=O)N1)C(=O)N[C@H](C)C(=O)N[C@H](Cc1ccccc1)C(=O)O [Example 59, pE-R-P-R-L-a-H-Q-G-P-nle-a-f-OH] ([pGlu]RPRL[dA]HQGP[dNle][dA][dF]-OH) |
| 200 | – | > 16.7 | – | CCCC[C@@H](NC(=O)[C@@H]1CCCN1C(=O)CNC(=O)[C@H](CCC(=O)O)NC(=O)[C@H](Cc1c[nH]cn1)NC(=O)[C@@H](C)NC(=O)[C@H](CC(C)C)NC(=O)[C@H](CCCNC(=N)N)NC(=O)[C@@H]1CCCN1C(=O)[C@H](CCCNC(=N)N)NC(=O)[C@@H]1CCC(=O)N1)C(=O)N[C@H](C)C(=O)N[C@H](Cc1ccccc1)C(=O)O [Example 60, pE-R-P-R-L-a-H-E-G-P-nle-a-f-OH] ([pGlu]RPRL[dA]HEGP[dNle][dA][dF]-OH) |
| 7.9 | – | > 16.7 | – | CCCC[C@@H](NC(=O)[C@@H]1CCCN1C(=O)CNC(=O)[C@H](CCCCN)NC(=O)[C@H](Cc1c[nH]cn1)NC(=O)[C@H](NC(=O)[C@H](CC(C)C)NC(=O)[C@H](CCCNC(=N)N)NC(=O)[C@@H]1CCCN1C(=O)[C@H](CCCNC(=N)N)NC(=O)[C@@H]1CCC(=O)N1)C(C)C)C(=O)N[C@H](C)C(=O)N[C@H](Cc1ccccc1)C(=O)O [Example 61, pE-R-P-R-L-v-H-K-G-P-nle-a-f-OH] ([pGlu]RPRL[dV]HKGP[dNle][dA][dF]-OH) |
| 95.9 | – | 7.9 | – | CCCC[C@@H](NC(=O)[C@@H]1CCCN1C(=O)[C@H](CC(=O)O)NC(=O)[C@H](CCCCN)NC(=O)[C@H](Cc1c[nH]cn1)NC(=O)[C@@H](C)NC(=O)[C@H](CC(C)C)NC(=O)[C@H](CCCNC(=N)N)NC(=O)[C@@H]1CCCN1C(=O)[C@H](CCCNC(=N)N)NC(=O)[C@@H]1CCC(=O)N1)C(=O)N[C@H](C)C(=O)N[C@H](Cc1ccccc1)C(=O)O [Example 62, pE-R-P-R-L-a-H-K-D-P-nle-a-f-OH] ([pGlu]RPRL[dA]HKDP[dNle][dA][dF]-OH) |
| 9.4 | – | 3.75 | – | CCCC[C@@H](NC(=O)[C@@H]1CCCN1C(=O)CNC(=O)[C@H](CCCCN)NC(=O)[C@H](Cc1c[nH]cn1)NC(=O)[C@@H](CCC)NC(=O)[C@H](CC1CCCCC1)NC(=O)[C@H](CCCNC(=N)N)NC(=O)[C@@H]1CCCN1C(=O)[C@H](CCCNC(=N)N)NC(=O)[C@@H]1CCC(=O)N1)C(=O)N[C@H](C)C(=O)N[C@H](Cc1ccccc1)C(=O)O [Example 63, pE-R-P-R-Cha-nva-H-K-G-P-nle-a-f-OH] ([pGlu]RPR[Cha][dNva]HKGP[dNle][dA][dF]-OH) |
